Measurements as given in publication PMC11714206, “Massively Parallel Screening of Toll/Interleukin‐1 Receptor (TIR)‐Derived Peptides Reveals Multiple Toll‐Like Receptors (TLRs)‐Targeting Immunomodulatory Peptides” (Advanced Science, 2024).

Molecular target: T1, MyD88^TIR (Homo sapiens, UniProt Q99836)
T1 construct: MyD88 (residues 148–296); 6xHis; made in house; host or cells: E. coli BL21 (DE3)
Assay: T‐Surf phage library (P8 and P3) selection against MyD88^TIR, four rounds, NGS read counts
Format: binding
Details: for P3_MyD88 Rank (after) / P3_MyD88 Rank (before): P3 library; for Population: 4th round of selection against MyD88 TIR, share of NGS reads; for P8_MyD88 Rank (after) / P8_MyD88 Rank (before): P8 library
In short: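 P8 and P3 T‐Surf libraries panned against plate-coated TIR domains (5 µg mL^−1), 1 h binding at RT, acid elution and TG1/helper-phage amplification per round. After four rounds, pools were PCR-barcoded and sequenced (NovaSeq, 100 bp paired-end, Phred ≥30); peptides ranked by read counts.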

[1] = P3_MyD88: rank by count after grouping
[2] = P3_MyD88: rank by count before grouping
[3] = 4R selection against MyD88, rank after grouping
[4] = 4R selection against MyD88, rank before grouping
[5] = selection against MyD88 TIR, rank by count after grouping
[6] = selection against MyD88 TIR, rank by count before grouping
[7] = P3_MyD88 pool: P3 T-Surf phage library
[8] = selection against MyD88, rank after grouping
[9] = selection against MyD88, rank before grouping
[10] = P8_MyD88: rank by NGS read count after grouping
[11] = P8_MyD88: rank by NGS read count before grouping
[12] = P8_MyD88: rank by count after grouping
[13] = P8_MyD88: rank by count before grouping
[14] = P8_MyD88 pool: P8 T-Surf phage library
[15] = selection against MyD88, rank by count after grouping
[16] = selection against MyD88, rank by count before grouping

T1 sequence (Q99836 148-296): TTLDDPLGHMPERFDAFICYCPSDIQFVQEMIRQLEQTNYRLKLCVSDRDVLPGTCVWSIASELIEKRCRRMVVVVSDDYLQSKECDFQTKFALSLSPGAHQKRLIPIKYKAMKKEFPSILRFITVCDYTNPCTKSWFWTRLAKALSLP

Q: Which “Rank (after)” value [1] does the source give for YAFTGHLHRDLVQRGL here?
A: The value was 427.

Q: What about the “Rank (before)” value [2] of the same sequence?
A: The value was 1521.

Q: Which results are given for YAFTGHLHRIWCSVA?
A: P3_MyD88 Rank (after) [3]: 581; P3_MyD88 Rank (before) [4]: 1523

Q: Which results are given for YAFTGHLHRYIEQRSG?
A: P3_MyD88 Rank (after) [3]: 610; P3_MyD88 Rank (before) [4]: 1533

Q: Which results are given for YAFTGHLHRYLVLRGA?
A: P3_MyD88 Rank (after) [3]: 630; P3_MyD88 Rank (before) [4]: 1502

Q: Which “P3_MyD88 Rank (after)” value [5] does the source give for YAFTGHLHRYLVPRGL here?
A: Its value is 248.

Q: And the “P3_MyD88 Rank (before)” value [6]?
A: Its value is 1503.

Q: What does the source list for YAFTGHLHRYLVQPGESVC?
A: Rank (after) [1]: 456; Rank (before) [2]: 1515

Q: With YAFTGHLHRYLVQRAA as the sequence, how does the Population [7] read?
A: The Population was 0.0032%.

Q: For YAFTGHLHRYLVQRGV, which Population [7] is on record?
A: The Population was 0.00378%.

Q: Which “Rank (after)” value [1] does the source give for YAFTGHLHRYLVQRL here?
A: Its value is 134.

Q: And the “Rank (before)” value [2]?
A: The value was 834.

Q: Which “Rank (after)” value [1] does the source give for YAFTGHLHSYLVQRSV here?
A: The value was 125.

Q: What about the “Rank (before)” value [2] of the same sequence?
A: Its value is 1530.

Q: Which results are given for YAFTGHLPRDLVLRGG?
A: P3_MyD88 Rank (after) [8]: 491; P3_MyD88 Rank (before) [9]: 1493

Q: Which results are given for YAFTGHLQRYLVQRCV?
A: P3_MyD88 Rank (after) [5]: 234; P3_MyD88 Rank (before) [6]: 1531

Q: Which results are given for YAFTGHLRKQSGEFG?
A: P3_MyD88 Rank (after) [8]: 486; P3_MyD88 Rank (before) [9]: 1491

Q: YAFTGHPPRYLVQRGV was tested. Which “Rank (after)” value [1] did it give?
A: Its value is 433.

Q: What about the “Rank (before)” value [2] of the same sequence?
A: Its value is 1536.

Q: With YAFTGQLNQYLVQRGV as the sequence, how does the “P3_MyD88 Rank (after)” value [3] read?
A: The value was 623.

Q: And the “P3_MyD88 Rank (before)” value [4]?
A: Its value is 1538.

Q: YAFTVHLHRYLVQRGG was tested. Which “Rank (after)” value [1] did it give?
A: Its value is 448.

Q: And the “Rank (before)” value [2]?
A: The value was 1482.

Q: Which results are given for YALTCHLHRYLVQRGV?
A: P3_MyD88 Rank (after) [5]: 204; P3_MyD88 Rank (before) [6]: 1552

Q: What does the source list for YALTGHKHRYMVQRGV?
A: P3_MyD88 Rank (after) [5]: 193; P3_MyD88 Rank (before) [6]: 1554

Q: For YARSDDNYYYWVTHVLLRHL, which “P8_MyD88 Rank (after)” value [8] is on record?
A: Its value is 507.

Q: What about the “P8_MyD88 Rank (before)” value [9] of the same sequence?
A: The value was 1764.

Q: For YASCDDFDYYLETAVLLRHL, which “P8_MyD88 Rank (after)” value [8] is on record?
A: Its value is 570.

Q: And the “P8_MyD88 Rank (before)” value [9]?
A: Its value is 1770.

Q: YASNDDNDYYWVTHVRLRHL was tested. Which “Rank (after)” value [10] did it give?
A: Its value is 1023.

Q: And the “Rank (before)” value [11]?
A: The value was 1909.

Q: Which “Rank (after)” value [10] does the source give for YASRSWYLDELVHIPW here?
A: The value was 1022.

Q: And the “Rank (before)” value [11]?
A: Its value is 1842.

Q: Which “Rank (after)” value [12] does the source give for YASSIWALNELIRILE here?
A: Its value is 138.

Q: And the “Rank (before)” value [13]?
A: The value was 149.

Q: What about the Population [14] of the same sequence?
A: The Population was 0.0108%.

Q: What does the source list for YASSSWALDELLKILYANETM?
A: Rank (after) [12]: 190; Rank (before) [13]: 277

Q: With YASSSWALDELLQILHARELF as the sequence, how does the “Rank (after)” value [12] read?
A: The value was 175.

Q: And the “Rank (before)” value [13]?
A: Its value is 207.

Q: How did the “P8_MyD88 Rank (after)” value [15] turn out when YASSSWALDELLQILW was run?
A: The value was 720.

Q: And the “P8_MyD88 Rank (before)” value [16]?
A: The value was 1891.

Q: With YASSSWALDELWLILEQR as the sequence, how does the “Rank (after)” value [10] read?
A: The value was 961.

Q: What about the “Rank (before)” value [11] of the same sequence?
A: Its value is 1883.

Q: With YASSSWALDELWNIF as the sequence, how does the “Rank (after)” value [12] read?
A: Its value is 167.

Q: What about the “Rank (before)” value [13] of the same sequence?
A: The value was 193.

Q: What about the Population [14] of the same sequence?
A: The Population was 0.00617%.

Q: With YASSSWALEELVKIMEAM as the sequence, how does the “Rank (after)” value [12] read?
A: Its value is 454.

Q: And the “Rank (before)” value [13]?
A: The value was 1898.

Q: Which “Rank (after)” value [10] does the source give for YASSSWALLELSKIFEAM here?
A: The value was 994.

Q: And the “Rank (before)” value [11]?
A: The value was 1899.

Q: What does the source list for YASSSWALNELLEILDAKETM?
A: Rank (after) [12]: 456; Rank (before) [13]: 1901

Q: YASSSWALNELPRILY was tested. Which “Rank (after)” value [12] did it give?
A: Its value is 389.

Q: And the “Rank (before)” value [13]?
A: Its value is 1902.

Q: With YASSSWELDELLRIPY as the sequence, how does the “Rank (after)” value [10] read?
A: Its value is 966.

Q: What about the “Rank (before)” value [11] of the same sequence?
A: The value was 1904.

Q: For YASSSWYLAELVHMPW, which “Rank (after)” value [10] is on record?
A: The value was 989.

Q: And the “Rank (before)” value [11]?
A: Its value is 1854.

Q: With YASSSWYLDALVQILHARELF as the sequence, how does the “Rank (after)” value [12] read?
A: Its value is 388.

Q: And the “Rank (before)” value [13]?
A: The value was 1856.

Q: What does the source list for YASSSWYLDELCIFC?
A: Rank (after) [10]: 951; Rank (before) [11]: 1858

Q: YASSSWYLDELLQIA was tested. Which “Rank (after)” value [12] did it give?
A: The value was 402.

Q: What about the “Rank (before)” value [13] of the same sequence?
A: The value was 1870.

Q: What does the source list for YASSSWYLDELVRSLW?
A: Rank (after) [10]: 897; Rank (before) [11]: 1860

Q: YASSSWYRFELVDILW was tested. Which “Rank (after)” value [10] did it give?
A: The value was 973.

Q: What about the “Rank (before)” value [11] of the same sequence?
A: Its value is 1874.

Q: Which results are given for YASSTWALDELLQIFE?
A: Rank (after) [12]: 124; Rank (before) [13]: 131; Population [14]: 0.0135%

Q: What does the source list for YASSTWWLRELLQIA?
A: Rank (after) [12]: 147; Rank (before) [13]: 208

Q: What does the source list for YASSWWALEELLQILHARELF?
A: Rank (after) [10]: 931; Rank (before) [11]: 1850

Q: With YASSWWALEELLRILY as the sequence, how does the “P8_MyD88 Rank (after)” value [8] read?
A: Its value is 568.

Q: What about the “P8_MyD88 Rank (before)” value [9] of the same sequence?
A: Its value is 1849.

Q: Which “P8_MyD88 Rank (after)” value [15] does the source give for YASSWWLRELLQIA here?
A: The value was 686.

Q: What about the “P8_MyD88 Rank (before)” value [16] of the same sequence?
A: The value was 1851.

Q: How did the “P8_MyD88 Rank (after)” value [5] turn out when YASYDDFWDRLIRMIE was run?
A: The value was 248.

Q: What about the “P8_MyD88 Rank (before)” value [6] of the same sequence?
A: The value was 439.

Q: YASYDDNDYYWDPCAAASS was tested. Which “P8_MyD88 Rank (after)” value [8] did it give?
A: Its value is 511.

Q: And the “P8_MyD88 Rank (before)” value [9]?
A: Its value is 1815.

Q: For YASYDDNDYYWLTNVLLRLL, which “P8_MyD88 Rank (after)” value [15] is on record?
A: The value was 710.

Q: What about the “P8_MyD88 Rank (before)” value [16] of the same sequence?
A: The value was 1778.

Q: Which “P8_MyD88 Rank (after)” value [15] does the source give for YASYDDNDYYWMTHVLLRHM here?
A: Its value is 771.

Q: What about the “P8_MyD88 Rank (before)” value [16] of the same sequence?
A: Its value is 1816.

Q: What does the source list for YASYDDNDYYWVTHVLLRFV?
A: P8_MyD88 Rank (after) [5]: 215; P8_MyD88 Rank (before) [6]: 1788
